Key:
mitochondrial aconitase = molecular target: T1, mitochondrial aconitase (Mus musculus, UniProt Q99KI0); assay: In-gel aconitase assay in mouse embryonic fibroblasts, mitochondrial aconitase; format: cell-based
T1 construct: endogenous in cells; host or cells: mouse embryonic fibroblasts
T1 sequence (Q99KI0 28-780): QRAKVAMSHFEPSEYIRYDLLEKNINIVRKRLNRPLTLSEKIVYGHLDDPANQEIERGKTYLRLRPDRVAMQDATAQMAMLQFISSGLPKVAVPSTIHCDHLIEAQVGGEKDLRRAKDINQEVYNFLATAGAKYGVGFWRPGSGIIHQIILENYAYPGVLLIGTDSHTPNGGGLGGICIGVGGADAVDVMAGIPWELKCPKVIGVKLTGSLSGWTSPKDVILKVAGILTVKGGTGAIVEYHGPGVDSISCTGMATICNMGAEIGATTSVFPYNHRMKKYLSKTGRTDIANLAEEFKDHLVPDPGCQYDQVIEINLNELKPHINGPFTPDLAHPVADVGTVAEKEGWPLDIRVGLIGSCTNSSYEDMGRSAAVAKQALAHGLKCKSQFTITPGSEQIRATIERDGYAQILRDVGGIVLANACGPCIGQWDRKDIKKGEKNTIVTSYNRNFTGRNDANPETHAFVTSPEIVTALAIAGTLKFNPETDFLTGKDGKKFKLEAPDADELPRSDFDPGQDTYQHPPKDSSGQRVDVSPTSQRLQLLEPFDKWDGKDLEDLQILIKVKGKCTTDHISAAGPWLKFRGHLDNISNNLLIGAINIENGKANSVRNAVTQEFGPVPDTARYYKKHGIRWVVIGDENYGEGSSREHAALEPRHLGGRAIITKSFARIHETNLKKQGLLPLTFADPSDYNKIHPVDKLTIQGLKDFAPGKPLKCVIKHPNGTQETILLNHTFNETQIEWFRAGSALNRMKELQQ
Method: (§1) Cells: Embryonic fibroblasts of 13-day old embryos were isolated from wild type, IRP1−/− mice and IRP2−/− mice as described in LaVaute et al. supra. Myc-tagged HEK 293 Tet-on cell line, in which IRP2 expression was inducible, was prepared and cultured as described Bourdon et al., Blood Cells Mol Dis, 31, 247-255 (2003). Erythroblasts were harvested from bone marrow and purified as described in Cooperman et al., Blood, 106, 1084-1091 (2005).
Aconitase assay: Aconitase activity gels for human lysates were performed as described in Tong et al., infra, and aconitase activity gels for mouse lysate were performed with the following modifications. […] Spectral aconitase activity was measured by following the method of Fillebeen et al., infra, using cis-aconitate as the substrate.
To determine whether the effect of Tempo1 on IRP1 activity was kinetically consistent with oxidative disassembly of the iron sulfur cluster, the effect of Tempo1 on aconitase activity was compared to that of the iron chelator, deferiprone (DFO), which activates IRE-binding activity of IRP1 by limiting de novo synthesis and repair of the iron sulfur cluster in IRP1. […] Recovery of aconitase activity was assessed in wild type and IRP2−/− cells.

TfR1 [1] = assay: Western blot of TfR1 in brain-region lysates of IRP2−/− mice; format: in vivo; details: lysates from cerebellum, brain-stem and forebrain of IRP2−/− mice, Tempo1 diet vs control diet
Method: Diet: The mice were weaned 3-4 weeks after their birth. Immediately after weaning, mice were maintained on either a Tempo1-supplemented or control diet. In the Tempo1-supplemented diet, powdered Tempo1 was uniformly mixed with bacon-flavored mouse chow by a “cold press” technique (Bio-Serv, Frenchtown, N.J., USA) at a concentration of 10 mg/g of food. Bacon-flavored chow without Tempo1 was used as the control diet.
Tissue and lysate preparation: Animals were euthanized and tissues were frozen in liquid nitrogen immediately after harvesting, and stored at −80° C. under argon. Experiments were performed on tissues that were pulverized in liquid N2-cooled mortars in an anaerobic chamber, and then lysed in lysis buffer that was deaerated by cyclic freezethaw and air-removal with argon. […]
Lysates made from various brain regions of IRP2−/− mice that were maintained on a control diet or on a Tempo1-supplemented diet were analyzed for IRE binding activity of IRP1 and for TfR1, IRP1, and actin protein levels by gel-shift assay and Western blot. […] FIG. 3b is a quantification of the results as intensity of the bands relative to the control, represented here as 100%. Quantification was performed with the IQMac (IRP1 activity) or NIH Image (protein levels) program. Error bars represent the standard deviation calculated from the results of two different sets of animals.

TfR1 [2] = assay: Western blot of TfR1 in IRP2−/− embryonic fibroblasts; format: cell-based, mouse; details: 0.3 and 1.0 mM, 16 h, with or without FAC
Method: as §1
Western blotting and antibodies: Protein analysis was carried out as described in LaVaute et al., supra. Equal amounts of protein (20-40 μg/lane) were separated on 13% SDSPAGE and transferred to nitrocellulose membranes. The membrane was blocked with 5% non-fat milk, 0.1% Triton X-100 in PBS and probed at RT in the same blocking buffer. IRP1 antibody was prepared against purified hIRP1 and used at 1:5000 dilution. L-ferritin antibody was raised in rabbit from L-ferritin protein purified from mouse livers. […]
To study the effect of Tempo1 on the IRE-binding activity of IRP1, IRP2−/− embryonic fibroblasts that were maintained in culture supplemented with 0, 0.3 and 1.0 mM Tempo1, with or without ferric ammonium citrate (FAC), for 16 h. […] Quantification was performed with the IQMac (IRP1 activity) or NIH Image (protein levels) program. Error bars represent the standard deviation calculated from the results of two different sets of experiments.

## CC1(C)CC(O)CC(C)(C)N1[O] [Tempo1]
Mitochondrial aconitase
  mitochondrial aconitase activity: does not substantially affect
TfR1 [1]
  TfR1 protein levels: markedly increased
TfR1 [2]
  TfR1 levels: increased

— US20100179188A1, “NITROXIDE RADICAL AS TREATMENT FOR NEURODEGENERATION” (Office of Technology Transfer, NIH, priority 2007, published 2010)
